From ChEMBL document CHEMBL5608163, “Structure modification of anoplin for fighting resistant bacteria” (Eur J Med Chem, 2024)
Converted amounts (≈) assume the structure as drawn. Bridge positions count the residues as written; N and C are the ends. Square brackets hold non-standard residues; d marks the D form. Peptide text beside a SMILES is read from it. I, II: the chains in the order shown. * marks the point of attachment. ξ: configuration not given here. Pentadecanoyl = CCCCCCCCCCCCCCC(=O)*; NMeI = CC[C@H](C)[C@H](NC)C(=O)O; Tridecanoyl = CCCCCCCCCCCCC(=O)*; NMeL = CN[C@@H](CC(C)C)C(=O)O; Undecanoyl = CCCCCCCCCCC(=O)*; Lauroyl = CCCCCCCCCCCC(=O)*; Nonanoyl = CCCCCCCCC(=O)*; Octanoyl = CCCCCCCC(=O)*; ξK = NCCCCC(N)C(=O)O

Assays:
Escherichia coli [1] = test: Antibacterial activity against Escherichia coli ATCC 25922 assessed as reduction in bacterial growth incubated for 18 hrs by Mueller-Hinton Broth based microdilution assay; format: functional
Pseudomonas aeruginosa [2] = test: Antimicrobial activity against Pseudomonas aeruginosa ATCC 27853 assessed as reduction in microbial growth incubated for 18 hrs by Mueller-Hinton Broth based microdilution assay; format: functional
Klebsiella pneumoniae [3] = test: Antimicrobial activity against Klebsiella pneumoniae ATCC 700603 assessed as reduction in microbial growth incubated for 18 hrs by Mueller-Hinton Broth based microdilution assay; format: functional
Bacillus subtilis [4] = test: Antimicrobial activity against Bacillus subtilis ATCC 23857 assessed as reduction in microbial growth incubated for 18 hrs by Mueller-Hinton Broth based microdilution assay; format: functional
Staphylococcus aureus [5] = test: Antibacterial activity against Staphylococcus aureus ATCC 25923 assessed as reduction in bacterial growth incubated for 18 hrs by Mueller-Hinton Broth based microdilution assay; format: functional
Pseudomonas aeruginosa [6] = test: Antibacterial activity against Pseudomonas aeruginosa ATCC 27853 assessed as reduction in bacterial cell growth measured for 18 hrs by Mueller-Hinton broth based two-fold serial dilution method; format: functional
Staphylococcus aureus [7] = test: Antibacterial activity against Staphylococcus aureus ATCC 25923 assessed as reduction in bacterial cell growth measured for 18 hrs by Mueller-Hinton broth based two-fold serial dilution method; format: functional
Escherichia coli [8] = test: Antibacterial activity against Escherichia coli ATCC 25922 assessed as reduction in bacterial cell growth measured for 18 hrs by Mueller-Hinton broth based two-fold serial dilution method; format: functional
Bacillus subtilis [9] = test: Antibacterial activity against Bacillus subtilis ATCC 23857 assessed as reduction in bacterial cell growth measured for 18 hrs by Mueller-Hinton broth based two-fold serial dilution method; format: functional
Klebsiella pneumoniae [10] = test: Antibacterial activity against Klebsiella pneumoniae ATCC 700603 assessed as reduction in bacterial cell growth measured for 18 hrs by Mueller-Hinton broth based two-fold serial dilution method; format: functional
Bacillus subtilis [11] = test: Antibacterial activity against Bacillus subtilis ATCC 23857 assessed as reduction in bacterial cell growth incubated for 16 to 24 hrs by CLSI-protocol based Mueller-Hinton Broth micro-dilution method; format: functional; settings: time 16-24 hrs
Erythrocyte = test: Hemolytic activity in human erythrocyte incubated for 70 mins by absorbance based assay; format: toxicity, cell-based; settings: 1.167 h
Pseudomonas aeruginosa [12] = test: Antibacterial activity against Pseudomonas aeruginosa ATCC 27853 assessed as reduction in bacterial cell growth incubated for 16 to 24 hrs by CLSI-protocol based Mueller-Hinton Broth micro-dilution method; format: functional; settings: time 16-24 hrs
Escherichia coli [13] = test: Antibacterial activity against Escherichia coli ATCC 25922 assessed as reduction in bacterial cell growth incubated for 16 to 24 hrs by CLSI-protocol based Mueller-Hinton Broth micro-dilution method; format: functional; settings: time 16-24 hrs
Klebsiella pneumoniae [14] = test: Antibacterial activity against Klebsiella pneumoniae ATCC 700603 assessed as reduction in bacterial cell growth incubated for 16 to 24 hrs by CLSI-protocol based Mueller-Hinton Broth micro-dilution method; format: functional; settings: time 16-24 hrs
Staphylococcus aureus [15] = test: Antibacterial activity against Staphylococcus aureus ATCC 25923 assessed as reduction in bacterial cell growth incubated for 16 to 24 hrs by CLSI-protocol based Mueller-Hinton Broth micro-dilution method; format: functional; settings: time 16-24 hrs

Molecule	MIC (Escherichia coli [1])	MIC (Pseudomonas aeruginosa [2])	MIC (Klebsiella pneumoniae [3])	MIC (Bacillus subtilis [4])	MIC (Staphylococcus aureus [5])	MIC (Pseudomonas aeruginosa [6])	MIC (Staphylococcus aureus [7])	MIC (Escherichia coli [8])	MIC (Bacillus subtilis [9])	MIC (Klebsiella pneumoniae [10])	other results
CC[C@H](C)[C@H](NC(=O)[C@H](CCCNC(=N)N)NC(=O)[C@H](CCCCN)NC(=O)[C@H](CC(C)C)N(C)C(=O)[C@H](CC(C)C)NC(=O)CN)C(=O)N[C@@H](CCCCN)C(=O)N[C@H](C(=O)N[C@@H](CC(C)C)C(=O)N[C@@H](CC(C)C)C(N)=O)[C@@H](C)O (H-GL[NMeL]KRIKTLL-NH2)	> 128 µM	64 µM	> 128 µM	64 µM	> 128 µM						
CC[C@H](C)[C@H](NC(=O)[C@H](CCCNC(=N)N)NC(=O)[C@H](CCCCN)NC(=O)[C@H](CC(C)C)N(C)C(=O)[C@H](CC(C)C)NC(=O)CN)C(=O)N[C@@H](CCCCN)C(=O)N[C@H](C(=O)N(C)[C@@H](CC(C)C)C(=O)N[C@@H](CC(C)C)C(N)=O)[C@@H](C)O (H-GL[NMeL]KRIKT[NMeL]L-NH2)	> 128 µM	> 128 µM	> 128 µM	> 128 µM	> 128 µM						
CC[C@H](C)[C@@H](C(=O)N[C@@H](CCCCN)C(=O)N[C@H](C(=O)N[C@@H](CC(C)C)C(=O)N[C@@H](CC(C)C)C(N)=O)[C@@H](C)O)N(C)C(=O)[C@H](CCCNC(=N)N)NC(=O)[C@H](CCCCN)NC(=O)[C@H](CC(C)C)N(C)C(=O)[C@H](CC(C)C)NC(=O)CN (H-GL[NMeL]KR[NMeI]KTLL-NH2)	> 128 µM	> 128 µM	> 128 µM	128 µM	> 128 µM						
CCCCCCCCC(=O)NCC(=O)N[C@@H](CC(C)C)C(=O)N[C@@H](CC(C)C)C(=O)N[C@@H](CCCCN)C(=O)N[C@@H](CCCNC(=N)N)C(=O)N[C@H](C(=O)N[C@@H](CCCCN)C(=O)N[C@H](C(=O)N[C@@H](CC(C)C)C(=O)N[C@@H](CC(C)C)C(N)=O)[C@@H](C)O)[C@@H](C)CC (Nonanoyl-GLLKRIKTLL-NH2)						8 µM (≈ 10.4 µg/mL)	8 µM (≈ 10.4 µg/mL)	8 µM (≈ 10.4 µg/mL)	4 µM (≈ 5.18 µg/mL)	16 µM (≈ 20.7 µg/mL)	
CCCCCCCCCCCCCCC(=O)NCC(=O)N[C@@H](CC(C)C)C(=O)N[C@@H](CC(C)C)C(=O)N[C@@H](CCCCN)C(=O)N[C@@H](CCCNC(=N)N)C(=O)N[C@H](C(=O)N[C@@H](CCCCN)C(=O)N[C@H](C(=O)N[C@@H](CC(C)C)C(=O)N[C@@H](CC(C)C)C(N)=O)[C@@H](C)O)[C@@H](C)CC (Pentadecanoyl-GLLKRIKTLL-NH2)						16 µM (≈ 22 µg/mL)	16 µM (≈ 22 µg/mL)	16 µM (≈ 22 µg/mL)	8 µM (≈ 11 µg/mL)	32 µM (≈ 44.1 µg/mL)	
CCCCCCCCCCCCC(=O)NCC(=O)N[C@@H](CC(C)C)C(=O)N[C@@H](CC(C)C)C(=O)N[C@@H](CCCCN)C(=O)N[C@@H](CCCNC(=N)N)C(=O)N[C@H](C(=O)N[C@@H](CCCCN)C(=O)N[C@H](C(=O)N[C@@H](CC(C)C)C(=O)N[C@@H](CC(C)C)C(N)=O)[C@@H](C)O)[C@@H](C)CC (Tridecanoyl-GLLKRIKTLL-NH2)						8 µM (≈ 10.8 µg/mL)	8 µM (≈ 10.8 µg/mL)	8 µM (≈ 10.8 µg/mL)	4 µM (≈ 5.4 µg/mL)	16 µM (≈ 21.6 µg/mL)	
CCCCCCCCCCC(=O)NCC(=O)N[C@@H](CC(C)C)C(=O)N[C@@H](CC(C)C)C(=O)N[C@@H](CCCCN)C(=O)N[C@@H](CCCNC(=N)N)C(=O)N[C@H](C(=O)N[C@@H](CCCCN)C(=O)N[C@H](C(=O)N[C@@H](CC(C)C)C(=O)N[C@@H](CC(C)C)C(N)=O)[C@@H](C)O)[C@@H](C)CC (Undecanoyl-GLLKRIKTLL-NH2)						8 µM (≈ 10.6 µg/mL)	8 µM (≈ 10.6 µg/mL)	8 µM (≈ 10.6 µg/mL)	4 µM (≈ 5.29 µg/mL)	8 µM (≈ 10.6 µg/mL)	
I: Lauroyl-GLLKRIKTLL[ξK][ξK]-NH2 / II: Lauroyl-GLLKRIKTLL[ξK] / III: Lauroyl-GLLKRIKTLL / IV: Lauroyl-GLLKRIKTLL (amide I:11-IV:C, I:12-II:C, II:11-III:C)											MIC (Bacillus subtilis [11]): 256 µM; HC10 (Erythrocyte): 210.92 µM; MIC (Pseudomonas aeruginosa [12]): 256 µM; MIC (Escherichia coli [13]): 125 µM; MIC (Klebsiella pneumoniae [14]): 256 µM; MIC (Staphylococcus aureus [15]): 256 µM
I: Octanoyl-GLLKRIKTLL[ξK][ξK]-NH2 / II: Octanoyl-GLLKRIKTLL[ξK] / III: Octanoyl-GLLKRIKTLL / IV: Octanoyl-GLLKRIKTLL (amide I:11-IV:C, I:12-II:C, II:11-III:C)											MIC (Bacillus subtilis [11]): 256 µM; HC10 (Erythrocyte): 103.4 µM; MIC (Pseudomonas aeruginosa [12]): 256 µM; MIC (Escherichia coli [13]): 256 µM; MIC (Klebsiella pneumoniae [14]): 256 µM; MIC (Staphylococcus aureus [15]): 256 µM
